Measured values reported in DBAASP.
In brackets after ≈: the same amount, converted by molar mass. Each block holds one compound with its values, some of them ahead of it.

Experiments:
Assay in all cases: ≥ marks a high value that may be exact or a test limit, other limits are often not marked, values filed in µg/mL are converted to µM
[1] = tested on: Escherichia coli
[2] = tested on: Staphylococcus aureus DSM 2569
[3] = tested on: Acinetobacter baumannii ATCC 17978
[4] = tested on: Salmonella typhimurium DSM 19587
[5] = tested on: Salmonella enterica subsp. enterica serovar Typhimurium DSM 554
[6] = tested on: Staphylococcus aureus ATCC 6538
[7] = tested on: Staphylococcus aureus RN4220
[8] = tested on: Bacillus subtilis ATCC 6633
[9] = tested on: Clostridium perfringens DSM 11784
[10] = tested on: Listeria monocytogenes ATCC 19115
[11] = tested on: Staphylococcus aureus ATCC 3300
[12] = tested on: Bacillus subtilis ATCC 6051
[13] = tested on: Enterobacter cloacae ATCC 13047
[14] = tested on: Staphylococcus aureus ATCC 16558
[15] = tested on: Pseudomonas fluorescens DSM 50124
[16] = tested on: Listeria monocytogenes
[17] = tested on: Pseudomonas putida DSM 291
[18] = tested on: Klebsiella pneumoniae ATCC 13883
[19] = tested on: Staphylococcus aureus ATCC 25923
[20] = tested on: Escherichia coli NCTC 13452
[21] = tested on: Enterococcus faecium ATCC 19434
[22] = tested on: Listeria monocytogenes SLCC 5581
[23] = tested on: Bacillus cereus DSM 4312
[24] = tested on: Staphylococcus aureus ATCC 43300
[25] = tested on: Escherichia coli ATCC 35150
[26] = tested on: Escherichia coli NEB5alpha
[27] = tested on: Salmonella enterica subsp. enterica serovar Typhimurium ATCC 14028
[28] = tested on: Clostridium perfringens ATCC 13124
[29] = tested on: Pseudomonas aeruginosa ATCC 10145
[30] = tested on: Escherichia coli O157:H7 ATCC 35150
[31] = tested on: Bacillus cereus DSM 4222
[32] = tested on: Escherichia coli ATCC 8739
[33] = tested on: Bifidobacterium longum subsp. infantis
[34] = tested on: Staphylococcus aureus
[35] = tested on: Escherichia coli ATCC 25922
[36] = tested on: Staphylococcus aureus ATCC 29213
[37] = tested on: Pseudomonas aeruginosa ATCC 27853
[38] = tested on: Candida parapsilosis ATCC 90018
[39] = tested on: Candida tropicalis ATCC 750
[40] = tested on: Candida glabrata ATCC 2001
[41] = tested on: Candida albicans ATCC 10231
[42] = tested on: Candida krusei ATCC 6258
[43] = tested on: Candida albicans DBFIQ 1
[44] = tested on: Enterococcus faecalis ATCC 29212
[45] = tested on: Escherichia coli ATCC 35218
[46] = tested on: Candida tropicalis DBFIQ 3
[47] = tested on: Candida albicans PEEC 2
[48] = tested on: Staphylococcus aureus BSF FBCB1313
[49] = tested on: Bacillus subtilis KCCM 11495
[50] = tested on: Escherichia coli KCCM 11569
[51] = tested on: Fusarium graminearum

MIC [1]: > 464 µM | MIC [2]: ≥ 500 µM | MIC [3]: ≥ 464 µM | MIC [4]: ≥ 1000 µM | MIC [5]: ≥ 1000 µM | MIC [6]: > 1160 µM | MIC [7]: ≥ 1160 µM | MIC [8]: ≥ 1160 µM | MIC [9]: ≥ 1000 µM | MIC [10]: ≥ 1160 µM | MIC [11]: ≥ 500 µM | MIC [12]: 15.6 µM (≈ 33.7 µg/mL) | MIC [13]: ≥ 464 µM | MIC [14]: ≥ 1160 µM | MIC [15]: ≥ 500 µM | MIC [16]: ≥ 250 µM | MIC [17]: ≥ 125 µM | MIC [18]: ≥ 464 µM | MIC [19]: > 464 µM | MIC [20]: ≥ 125 µM | MIC [21]: ≥ 464 µM | MIC [22]: ≥ 500 µM | MIC [23]: ≥ 1000 µM | MIC [24]: > 464 µM | MIC [25]: ≥ 500 µM | MIC [26]: ≥ 62.5 µM | MIC [27]: > 464 µM | MIC [28]: ≥ 125 µM | MIC [29]: ≥ 464 µM | MIC [30]: ≥ 371 µM | MIC [31]: ≥ 1000 µM | MIC [32]: ≥ 371 µM
Compound: CC[C@H](C)[C@H](NC(=O)[C@@H](N)CCCN=C(N)N)C(=O)N[C@@H](CCCCN)C(=O)N[C@H](C(=O)N[C@H](C(=O)N[C@H](C(=O)N[C@@H](CO)C(=O)N[C@@H](Cc1ccccc1)C(=O)N[C@@H](CC(=O)O)C(=O)N[C@@H](CC(C)C)C(=O)N1CCC[C@H]1C(=O)N[C@@H](C)C(=O)N[C@@H](CC(C)C)C(=O)N[C@@H](CCCN=C(N)N)C(=O)N[C@@H](Cc1c[nH]c2ccccc12)C(=O)N[C@@H](CC(C)C)C(=O)N[C@@H](CCCCN)C(=O)N[C@@H](CC(C)C)C(=O)O)[C@@H](C)O)C(C)C)[C@@H](C)O [RIKTVTSFDLPALRWLKL]

MIC [1]: 3490 µM (≈ 3000 µg/mL) | MIC [33]: ≥ 3490 µM | MIC [34]: 3490 µM (≈ 3000 µg/mL)
Compound: CC[C@H](C)[C@H](NC(=O)[C@@H]1CCCN1C(=O)[C@H](CC(N)=O)NC(=O)[C@H](Cc1cnc[nH]1)NC(=O)[C@@H](NC(=O)[C@@H]1CCCN1C(=O)[C@H](C)NC(=O)[C@@H](N)CC(C)C)C(C)C)C(=O)O [LAPVHNPI]

MIC [35]: > 130 µM | MIC [36]: > 130 µM | MIC [37]: > 130 µM | MIC [38]: ≥ 500 µM | MIC [39]: ≥ 500 µM | MIC [40]: ≥ 500 µM | MIC [41]: 250 µM (≈ 489 µg/mL) | MIC [42]: ≥ 62.5 µM
Compound: CC[C@H](C)[C@H](NC(=O)CN)C(=O)N[C@@H](CC(C)C)C(=O)N[C@@H](CC(=O)O)C(=O)N[C@H](C(=O)N[C@@H](CCCCN)C(=O)N[C@@H](CC(N)=O)C(=O)N[C@@H](CCCCN)C(=O)N[C@H](C(=O)N[C@@H](CO)C(=O)N[C@@H](CC(N)=O)C(=O)N[C@@H](CC(C)C)C(=O)N[C@@H](Cc1ccccc1)C(=O)N[C@@H](CCCCN)C(=O)N[C@@H](CCCCN)C(=O)N[C@H](C(=O)N[C@@H](CCCCN)C(N)=O)[C@@H](C)CC)C(C)C)[C@@H](C)CC [GILDIKNKVSNLFKKIK]

MIC [43]: ≥ 40.8 µM | MIC [44]: 5.1 µM (≈ 7.99 µg/mL) | MIC [45]: 5.1 µM (≈ 7.99 µg/mL) | MIC [37]: 2.6 µM (≈ 4.07 µg/mL) | MIC [46]: ≥ 81.7 µM | MIC [19]: 2.6 µM (≈ 4.07 µg/mL) | MIC [47]: ≥ 40.8 µM | MIC [48]: 10.2 µM (≈ 16 µg/mL)
Compound: CC(C)C[C@H](NC(=O)[C@H](CCCCN)NC(=O)[C@H](CCCCN)NC(=O)[C@H](Cc1ccccc1)NC(=O)[C@H](CC(C)C)NC(=O)[C@H](CCCCN)NC(=O)[C@H](CCCCN)NC(=O)[C@H](Cc1ccccc1)NC(=O)[C@H](CC(C)C)NC(=O)[C@@H](N)CCCCN)C(=O)N[C@@H](Cc1ccccc1)C(=O)N[C@@H](CCCCN)C(N)=O [KLFKKLFKKLFK]

MIC [49]: ≥ 38.9 µM | MIC [50]: ≥ 38.9 µM
Compound: CC(C)C[C@H](NC(=O)CNC(=O)[C@H](Cc1cnc[nH]1)NC(=O)[C@H](Cc1cnc[nH]1)NC(=O)[C@H](CC(C)C)NC(=O)[C@H](CC(C)C)NC(=O)[C@H](C)NC(=O)[C@H](CC(N)=O)NC(=O)[C@H](CC(C)C)NC(=O)[C@@H](N)Cc1c[nH]c2ccccc12)C(=O)N[C@@H](CC(N)=O)C(=O)N[C@@H](CS)C(=O)N[C@@H](C)C(=O)N[C@@H](CCCCN)C(=O)NCC(N)=O [WLNALLHHGLNCAKG]

MIC [51]: ≥ 32 µM
Compound: CC(C)C[C@H](NC(=O)[C@@H](N)CCCCN)C(=O)N[C@@H](CS)C(=O)N[C@@H](CCC(=O)O)C(=O)N[C@@H](CCCCN)C(=O)N1CCC[C@H]1C(=O)N[C@@H](CO)C(=O)N[C@@H](CCCCN)C(=O)N[C@H](C(=O)N[C@@H](Cc1c[nH]c2ccccc12)C(=O)N[C@@H](Cc1ccccc1)C(=O)NCC(=O)N[C@@H](CC(N)=O)C(=O)N[C@@H](CS)C(=O)NCC(=O)N[C@@H](CC(N)=O)C(=O)N1CCC[C@H]1C(=O)N[C@@H](CCCN=C(N)N)C(=O)N[C@@H](Cc1cnc[nH]1)C(=O)N[C@@H](CS)C(=O)NCC(=O)O)[C@@H](C)O [KLCEKPSKTWFGNCGNPRHCG]
